Measurements reported in patent US5051417A, “Indolythiadiazines for treating heart failure” (Les Laboratoires Beecham S.A., priority 1988, dated 1991).
Counter-ions that a name gives are not always drawn.

System: canine cardiac myofibrillar Ca++-dependent Mg++-ATPase
Assay: Measurement of myofibrillar Ca++-dependent Mg++-ATPase activity on canine cardiac myofibrils
Type: biochemical
Details: pH 7.0, 21° C.; for max (percent change of maximal ATPase activity): pCa=5.47
Method: 1. Measurement of myofibrillar Ca++-dependent Mq++-ATPase activity The effect on myofibrillar Ca++sensitivity and on maximal activity of myofibrillar Ca++-dependent Mg++-ATPase was determined on canine cardiac myofibrils. (a) Contractile protein preparation Cardiac myofibrils free of membrane contaminants were prepared from left ventricular tissue of dog hearts using a modification of the method described by SOLARO et al, Biochem. Biophys. Acta, 245, 259-262, (1971). Before centrifugation, the heart homogenate was filtered through gauze. After Triton X-100 treatments, the myofibrillar fraction was washed once by resuspension and centrifugation in 10 volumes of 1 mM EGTA, […], 30 mM imidazole, 2 mM MgCl2, pH 7.0. The pellet was then washed three times in 10 volumes of the same buffer without EGTA. Before the last centrifugation, the suspension of myofibrils was filtered through a stainless steel sieve with 0.25 mm meshes. Myofibrils were kept in pellet overnight. Before use, the pellet was suspended in a small amount of buffer, the protein concentration was determined by the method of BRADFORD M., Anal. Biochem., 1976, 72, 248 and adjusted in order to have a concentration between 6 and 7 mg/ml. (b) Myofibrillar ATPase activity Ca++-dependent myfibrillar ATPase activity was determined at 21° C., pH 7.0, by measuring the rate of release of inorganic phosphate. All assays were performed within 24hrs. of final purification, using the method described by SOLARO and […]., 51. 290-4,(1982). Reaction mixtures (4 ml) containing 0.6-0.7 mg/ml myofibrillar protein, 80mM KCl, 20 mM imidazole, 3 mM MgCl2, 1 mM EGTA, the desired amount of CaCl2, and the indicated concentration of drug or appropriate vehicle were preincubated for 6 min. prior to assay. The amount of CaCl2 was varied between 0 and 0.9 mM and the pCa (-log free Ca++) computed using 2.514×10^6 M^-1 as the apparent affinity of Ca++for EGTA at pH 7.0. Reactions were initiated by the addition of Na2 ATP to final concentration of 2 mM. After an incubation period of 12 min., reactions were quenched by the addition of an equal volume of ice-cold 10% trichloroacetic acid. The protein was pelleted by centrifugation (2000 g, 15 min.) and Pi was assayed in the supernatant fraction using a modification of the method described by LANZETTA et al, Anal. Biochem., 100, 95-97, (1979). The following solutions were prepared: (1) 3.7% ammonium heptamolybdate in 0.12 N H2 SO4 (2) 0.074% malachite green oxalate in 1% polyvinylic alcohol. The colour reagent was prepared by mixing an equal volume of solution (1) and (2) 15 min. before the assay. For the assay, 1,700 μl of 1% H2 SO4 and 1 ml of colour reagent were added to 100 μl of sample. Colour development occurred at room temperature for 30 min. and was quenched by the addition of 200 μl of 1M tri-potassium citrate. The absorbance was measured at 620 millimicrons. The effect of each compound, tested at the indicated concentration, on the relation between pCa and percent activation was determined taking 100% for the maximum ATPase activity obrained with vehicle alone. The effect on Ca++sensitivity was quantified by measuring the shift of the pCa giving 50% of the maximal control ATPase activity. The effect on maximal ATPase activity was expressed as the percent change of ATPase activity for pCa=5.47. Mean effects on myofibrillar ATPase activity were obtained from 1 to 5 preparations, (compounds tested at 2×10^-4 M).

max (percent change of maximal ATPase activity) (30 μM) [%] | pCa (shift of the pCa giving 50% of the maximal control ATPase activity; Ca++ sensitivity) (30 μM) | max (percent change of maximal ATPase activity) (10 μM) [%] | pCa (shift of the pCa giving 50% of the maximal control ATPase activity; Ca++ sensitivity) (10 μM) | Structure (SMILES)
3 ± 1 | +0.37 ± 0.05 | – | – | CC#N.CC1SC(=O)NN=C1c1ccc2c(c1)C(=NNc1ccc(S(C)(=O)=O)cc1)C(=O)N2 (stereo not drawn) [Example 33]
7 ± 2 | +0.11 ± 0.04 | – | – | CC1SC(=O)N(C)N=C1c1ccc2c(c1)C(=NNc1ccccc1)C(=O)N2 (stereo not drawn) [Example 41]
5 ± 2 | +0.40 ± 0.02 | – | – | CC1SC(=O)NN=C1c1ccc2c(c1)C(=NNc1ccc(C(=O)O)cc1)C(=O)N2 (stereo not drawn) [Example 34]
34 ± 5 | +1.05 ± 0.06 | 34 ± 7 | 1.10 ± 0.02 | CC1SC(=O)NN=C1c1ccc2c(c1)C(=NNC(=O)c1cccnc1)C(=O)N2 (stereo not drawn) [Example 38, 3-Pyridinecarboxylic acid, 2-[2,3-dihydro-5-(3,6-dihydro-6-methyl-2-oxo-2H-1,3,4-thiadiazin-5-yl)-2-oxo-1H-indol-3-ylidenelhydrazide hydrochloride]
24 ± 5 | +0.92 ± 0.06 | – | – | CC1SC(=O)NN=C1c1ccc2c(c1)C(=NNc1cccnc1)C(=O)N2 (stereo not drawn) [Example 36, 5-(3,6-Dihydro-6-methyl-2-oxo-2H-1,3,4-thiadiazin-5-yl) -1H-indole-2,3-dione 3-(3-pyridylhydrazone)]
0 ± 1 | +0.05 ± 0.06 | – | – | CC1SC(=O)NN=C1c1ccc2c(c1)C(=NNc1ccccn1)C(=O)N2.Cl (stereo not drawn) [Example 35, 5-(3,6-Dihydro-6-methyl-2-oxo-2H-1,3,4-thiadiazin-5-yl)-1H-indole-2,3-dione 3-(2-pyridylhydrazone) monohydrochloride]
-9 ± 1 | +0.14 ± 0.03 | – | – | CC1SC(=O)NN=C1c1ccc2c(c1)C(=NNC(=O)c1ccccn1)C(=O)N2 (stereo not drawn) [Example 37]
11 ± 4 | +0.30 ± 0.02 | – | – | CC1SC(=O)NN=C1c1ccc2c(c1)C(=NNc1ccc(C(F)(F)F)cc1)C(=O)N2 (stereo not drawn) [Example 42, 5-(3,6-Dihydro-6-methyl-2-oxo-2H-1,3,4-thiadiazin-5-yl) -1H-indole-2,3-dione 3-[4-trifluoromethylphenylhydrazone]]
3 ± 2 | +0.04 ± 0.02 | – | – | CC1SC(=O)NN=C1c1ccc2c(c1)C(=NNC(=O)c1ccncc1)C(=O)N2 (stereo not drawn) [Example 39]

Further lines, the molecule ahead of its results:

Structure (SMILES) | max (percent change of maximal ATPase activity) (30 μM) [%] | pCa (shift of the pCa giving 50% of the maximal control ATPase activity; Ca++ sensitivity) (30 μM) | max (percent change of maximal ATPase activity) (10 μM) [%] | pCa (shift of the pCa giving 50% of the maximal control ATPase activity; Ca++ sensitivity) (10 μM)
CCOC(=O)CON=C1C(=O)Nc2ccc(C3=NNC(=O)SC3C)cc21 (stereo not drawn) [Example 23, Ethyl[[[2,3-dihydro-5-(3,6-dihydro-6-methyl-2-oxo-2H -1,3,4-thiadiazin-5-yl)-2-oxo-1H-indol-3-ylidene]amino]oxy]lacetate] | 8 ± 6 | +0.05 ± 0.02 | – | –
CC1SC(=O)NN=C1c1ccc2c(c1)C(=NNCc1ccccc1)C(=O)N2 (stereo not drawn) [Example 22, 5-(3,6-Dihydro-6-methyl-2-oxo-2H-1,3,4-thiadiazin-5-yl) -1H-indole-2,3-dione 3-[(phenylmethyl)hydrazone]] | 21 ± 4 | +0.64 ± 0.1 | – | –
CC1SC(=O)NN=C1c1ccc2c(c1)C(=Cc1cccnc1)C(=O)N2 (stereo not drawn) [Example 19, 1,3-Dihydro-5-(3,6-dihydro-6-methyl-2-oxo-2H-1,3,4-thiadiazin-5-yl)-3-(3-pyridylmethylene)-2H-indol-2-one] | -14 ± 7 | +0.23 ± 0.06 | – | –
CC1SC(=O)NN=C1c1ccc2c(c1)C(=NNC1CCCCC1)C(=O)N2 (stereo not drawn) [Example 25, 5-(3,6-Dihydro-6-methyl-2-oxo-2H-1,3,4-thiadiazin-5-yl) -1H-indole-2,3-dione 3-(cyclohexylhydrazone)] | 22 ± 3 | +0.49 ± 0.06 | – | –
CC1SC(=O)NN=C1c1ccc2c(c1)C(=NNc1c(F)c(F)c(F)c(F)c1F)C(=O)N2 (stereo not drawn) [Example 32, 5-(3,6-Dihydro-6-methyl-2-oxo-2H-1,3,4-thiadiazin-5-yl) -1H-indole-2,3-dione 3-(pentafluorophenylhydrazone)] | -1 ± 7 | +0.10 ± 0.04 | – | –
COc1ccc(NN=C2C(=O)Nc3ccc(C4=NNC(=O)SC4C)cc32)cc1 (stereo not drawn) [Example 28, 5-(3,6-Dihydro-6-methyl-2-oxo-2H-1,3,4-thiadiazin-5-yl) -1H-indole-2,3-dione 3-[(4-methoxy)phenylhydrazone]] | 20 ± 5 | +0.94 ± 0.05 | – | –
CC1SC(=O)NN=C1c1ccc2c(c1)C(=NNc1ccc(Cl)cc1)C(=O)N2 (stereo not drawn) [Example 29, 5-(3,6-Dihydro-6-methyl-2-oxo-2H-1,3,4-thiadiazin-5-yl) -1H-indole-2,3-dione 3-[(4-chloro)phenylhydrazone]] | 25 ± 4 | +0.78 ± 0.1 | – | –
Cc1ccc(NN=C2C(=O)Nc3ccc(C4=NNC(=O)SC4C)cc32)cc1 (stereo not drawn) [Example 21, 5-(3,6-Dihydro-6-methyl-2-oxo-2H-1,3,4-thiadiazin-5-yl) -1H-indole-2,3-dione 3-[(4-methyl)phenylhydrazone]] | -42 ± 7 | +1.30 ± 0.00 | 41 ± 2 | 1.07 ± 0.02
CC1SC(=O)NN=C1c1ccc2c(c1)C(=NNc1ccc(Cl)c(Cl)c1)C(=O)N2 (stereo not drawn) [Example 27, 5-(3,6-Dihydro-6-methyl-2-oxo-2H-1,3,4-thiadiazin-5-yl) -1H-indole-2,3-dione 3-(3,4-dichloroohenyl)hydrazone] | -1 ± 0 | +0.05 ± 0.03 | – | –
CC1SC(=O)NN=C1c1ccc2c(c1)C(=Cc1ccccn1)C(=O)N2 (stereo not drawn) [Example 20, 1,3-Dihydro-5-(3,6-dihydro-6-methyl-2-oxo-2H-1,3,4-thiadiazin-5-yl)-3-(2-pyridylmethylene)-2H-indol-2-one] | -13 ± 5 | +0.19 ± 0.08 | – | –
COC(=O)NN=C1C(=O)Nc2ccc(C3=NNC(=O)SC3C)cc21 (stereo not drawn) [Example 15, Methyl 2-[2,3-dihydro-5-(3,6-dihydro-6-methyl-2-oxo-2H -1,3,4-thiadiazin-5-yl)-2-oxo-1H-indol-3-ylidene]hydrazine carboxylate] | 2 ± 4 | +0.08 ± 0.04 | – | –
CC1SC(=O)NN=C1c1ccc2c(c1)C(=NN(C)c1ccccc1)C(=O)N2 (stereo not drawn) [Example 26, 5-(3,6-Dihydro-6-methyl-2-oxo-2H-1,3,4-thiadiazin-5-yl) -1H-indole-2,3-dione 3-(methylphenylhydrazone)] | 17 ± 2 | +0.65 ± 0.05 | – | –
CC1SC(=O)NN=C1c1ccc2c(c1)C(=NNc1ccc(F)cc1)C(=O)N2 (stereo not drawn) [Example 30] | 28 ± 6 | +1.01 ± 0.07 | – | –
